# Results as given in patent US8367614B2, “Rheumatoid arthritis-preventive agent for oral intake” (Calpis Co., Ltd, priority 2006, dated 2013).
# Key:
# adjuvant arthritis [1] = assay: Adjuvant arthritis in rats, arthritis score (Example 2)
# adjuvant arthritis [2] = assay: Adjuvant arthritis in rats, arthritis score (Example 1 and Comparative Examples 1-3); type: in vivo, Female Lewis rats; conditions: test material 10% in 0.5% CMC, 1 ml/100 g oral once a day, average ± standard error
molecule,measurement,setting,value
CC(C)Cc1ccc(C(C)C(=O)O)cc1 (stereo not drawn) [Ibuprofen],Arthritis score,"adjuvant arthritis [1]; Ibuprofen 0.3% in 0.5% CMC, 1 ml/100 g oral once a day, day 0",0
same,Arthritis score,"adjuvant arthritis [1]; Ibuprofen 0.3%, oral once a day, day 5",0
same,Arthritis score,"adjuvant arthritis [1]; Ibuprofen 0.3%, oral once a day, day 9",0.1 ± 0.1
same,Arthritis score,"adjuvant arthritis [1]; Ibuprofen 0.3%, oral once a day, day 14",6.5 ± 0.6
same,Arthritis score,"adjuvant arthritis [1]; Ibuprofen 0.3%, oral once a day, day 19",9.0 ± 0.5
same,Arthritis score,"adjuvant arthritis [1]; Ibuprofen 0.3%, oral once a day, day 21",9.5 ± 0.3
sodium caseinate [Comp. Ex. 2],Arthritis score,"adjuvant arthritis [2]; day 0 to 21, day 0, max 12 points",0.00
same,Arthritis score,adjuvant arthritis [2]; day 5,0.00
same,Arthritis score,adjuvant arthritis [2]; day 9,1.25 ± 0.37
same,Arthritis score,adjuvant arthritis [2]; day 14,8.25 ± 0.62
same,Arthritis score,adjuvant arthritis [2]; day 19,10.50 ± 0.33
same,Arthritis score,adjuvant arthritis [2]; day 22,10.38 ± 0.32
